From patent publication US20120100989A1, “3-Aryl-4-(2-thienylmethylene)isoxazol-5(4H)-ones as Fungicides” (Bayer CropScience AG, priority 2010, published 2012)

How the values were obtained:
[1] = system: caterpillars of the armyworm (Spodoptera frugiperda); assay: Spodoptera frugiperda test (spray treatment); assay type: in vivo; settings: maize leaf discs, application rate 500 g/ha
Experimental: Example J Spodoptera Frugiperda Test (Spray Treatment) [table] To produce a suitable preparation of active compound, 1 part by weight of active compound is mixed with the stated amounts of solvent and emulsifier, and the concentrate is diluted with emulsifier-containing water to the desired concentration. Discs of maize leaves (Zea mays) are sprayed with an active compound preparation of the desired concentration and, after drying, populated with caterpillars of the armyworm (Spodoptera frugiperda). After the desired period of time, the effect in % is determined. 100% means that all caterpillars have been killed; 0% means that none of the caterpillars have been killed.

[2] = log P by HPLC on reversed-phase columns (C 18), EEC directive 79/831 Annex V.A8; assay type: physicochemical; settings: for chromatographic logP: reversed-phase C18 HPLC column, preparation examples, acidic range pH 2.7, formic acid, read-out: log P (HCOOH)
Experimental: The log P values were measured according to EEC directive 79/831 Annex V.A8 by HPLC (High Performance Liquid Chromatography) on reversed-phase columns (C 18), using the method below:
The determination was carried out in the acidic range at pH 2.7 using the mobile phases 0.1% aqueous formic acid and acetonitrile; linear gradient from 10% acetonitrile to 95% acetonitrile.

| log P ([2]; pH 2.7) | SMILES | further results |
| --- | --- | --- |
|  | O=C1ON=C(c2ccccc2)C1=Cc1cccs1 [U-1] | activity (caterpillars killed) [1]: 80% |
| 3.26 | Cc1ccsc1C=C1C(=O)ON=C1c1ccc(F)cc1 [I-32] | activity (caterpillars killed) [1]: 80% |
| 2.95 | COc1ccc(C2=NOC(=O)C2=Cc2cccs2)cc1 [U-37] | activity (caterpillars killed) [1]: 80% |
| 3.34 | Cc1ccc(C=C2C(=O)ON=C2c2ccc(F)cc2)s1 [I-33] | activity (caterpillars killed) [1]: 80% |
| 3.34 | COc1cccc(C2=NOC(=O)C2=Cc2ccc(C)s2)c1 [U-12] | activity (caterpillars killed) [1]: 80% |
| 3.41 | CCOc1ccc(C2=NOC(=O)C2=Cc2cccs2)cc1 [I-58] | activity (caterpillars killed) [1]: 80% |
| 3.67 | Cc1ccc(C2=NOC(=O)C2=Cc2ccc(C)s2)cc1 [U-10] | activity (caterpillars killed) [1]: 80% |
| 2.75 | COc1ccccc1C1=NOC(=O)/C1=C\c1cccs1 [U-39] | activity (caterpillars killed) [1]: 80% |
| 3.73 | CC(C)Oc1ccc(C2=NOC(=O)C2=Cc2cccs2)cc1 [I-79] | activity (caterpillars killed) [1]: 80% |
| 3.80 | O=C1ON=C(c2ccc(OC(F)(F)F)cc2)C1=Cc1cccs1 [I-55] | activity (caterpillars killed) [1]: 80% |
| 3.68 | O=C1ON=C(c2ccc(C(F)(F)F)cc2)C1=Cc1cccs1 [I-56] | activity (caterpillars killed) [1]: 80% |
| 3.44 | O=C1ON=C(c2ccc(Cl)cc2)C1=Cc1cccs1 [I-5] | activity (caterpillars killed) [1]: 80% |
| 3.28 | COc1ccc(C2=NOC(=O)C2=Cc2ccc(C)s2)cc1 [U-9] | activity (caterpillars killed) [1]: 80% |
| 4.39 | CC(C)(C)c1ccc(C2=NOC(=O)C2=Cc2cccs2)cc1 [I-29] | activity (caterpillars killed) [1]: 80% |
| 4.48 | O=C1ON=C(c2ccccc2OCc2ccccc2)C1=Cc1ccc(Br)s1 [I-113] |  |
| 4.12 | Cc1ccc(C2=NOC(=O)C2=Cc2ccc(Br)s2)cc1 [I-48] |  |
| 4.42 | O=C1ON=C(c2ccc(OC(F)(F)F)cc2)C1=Cc1ccc(Cl)s1 [I-36] |  |
| 4.88 | O=C1ON=C(c2ccc(Cl)cc2)C1=Cc1cc(Br)c(Br)s1 [I-45] |  |
| 3.71 | O=C1ON=C(c2ccccc2)C1=Cc1cc(Br)cs1 [U-36] |  |
| 3.18 | COc1ccc(C2=NOC(=O)C2=Cc2sccc2C)cc1 [U-11] |  |
| 4.23 | COc1ccc(C2=NOC(=O)C2=Cc2cc(-c3ccccc3)cs2)cc1 [I-62] |  |
| 3.43 | O=C1ON=C(c2ccccc2OC(F)(F)F)C1=Cc1cccs1 [I-121] |  |
| 2.91 | O=C1ON=C(c2ccccc2)C1=Cc1cccs1 [U-33] |  |
| 3.50 | O=C1ON=C(c2ccccc2Cl)C1=Cc1ccc([N+](=O)[O-])s1 [I-104] |  |
| 3.76 | O=C1ON=C(c2ccccc2)C1=Cc1ccc(Cl)s1 [I-105] |  |
| 3.67 | O=C1ON=C(c2ccccc2F)C1=Cc1ccc(Cl)s1 [I-106] |  |

| log P ([2]; pH 2.7) | SMILES | further results |
| --- | --- | --- |
| 3.38 | Cc1ccsc1C=C1C(=O)ON=C1c1ccccc1Cl [I-18] |  |
| 3.71 | COc1ccc(C2=NOC(=O)C2=Cc2cc(Br)cs2)cc1 [U-16] |  |
| 2.95 | COc1ccc(C2=NOC(=O)/C2=C\c2cccs2)cc1 [U-38] | activity (caterpillars killed) [1]: 80% |
| 4.45 | COc1ccc(C2=NOC(=O)C2=Cc2cc(Br)c(Br)s2)cc1 [I-44] |  |
| 3.61 | O=C1ON=C(c2cccc(C(F)(F)F)c2)C1=Cc1cccs1 [I-57] |  |
| 3.18 | Cc1ccsc1C=C1C(=O)ON=C1c1ccccc1 [U-29] |  |
| 4.84 | Cc1ccc(C2=NOC(=O)C2=Cc2cc(Br)c(Br)s2)cc1 [I-64] |  |
| 4.29 | CSCc1sc(C=C2C(=O)ON=C2c2ccccc2Cl)cc1Br [I-13] |  |
| 3.67 | Cc1cccc(C2=NOC(=O)C2=Cc2ccc(C)s2)c1 [I-85] |  |
| 3.87 | CCc1sc(C=C2C(=O)ON=C2c2ccccc2Cl)cc1Br [I-10] |  |
| 3.31 | Cc1ccsc1C=C1C(=O)ON=C1c1cccc(F)c1 [I-102] |  |
| 3.74 | O=C1ON=C(c2ccc(F)cc2)C1=Cc1sccc1Br [I-60] |  |
| 3.62 | Cc1ccc(C2=NOC(=O)C2=Cc2ccc([N+](=O)[O-])s2)cc1 [U-18] |  |
| 3.69 | O=C1ON=C(c2c(F)cccc2F)C1=Cc1cc(Br)cs1 [I-77] |  |
| 3.32 | Cc1ccc(C2=NOC(=O)C2=Cc2cccs2)cc1 [U-2] | activity (caterpillars killed) [1]: 80% |
| 3.60 | Cc1cccc(C2=NOC(=O)C2=Cc2sccc2C)c1 [I-86] |  |
| 3.64 | O=C1ON=C(c2cc(Cl)ccc2Cl)C1=Cc1cccs1 [I-35] |  |
|  | O=C1ON=C(c2ccc(Cl)cc2Cl)/C1=C/c1cccs1 [I-4, 3-(2,4-dichlorophenyl)-4-(2-thienylmethylene)isoxazol-5(4H)-one] | chromatographic logP ([2]; HPLC): 3.72 |
| 4.17 | O=C1ON=C(c2ccc(Cl)cc2)C1=Cc1ccc(Cl)s1 [I-46] |  |
| 5.30 | Cc1ccc(C2=NOC(=O)C2=Cc2cc(-c3ccccc3)cs2)cc1 [I-69] |  |
| 3.25 | O=C1ON=C(c2c(F)cccc2F)C1=Cc1ccc([N+](=O)[O-])s1 [I-76] |  |
| 3.20 | COc1cc(OC)cc(C2=NOC(=O)C2=Cc2cccs2)c1 [U-21] |  |
| 4.64 | O=C1ON=C(c2ccccc2Cl)C1=Cc1cc(Br)c(Br)s1 [I-17] |  |
| 3.21 | COc1ccc(F)cc1C1=NOC(=O)C1=Cc1sccc1C [U-32] |  |
| 3.48 | Cc1cccc(C2=NOC(=O)C2=Cc2cccs2)c1C [I-123] |  |
| 3.50 | O=C1ON=C(c2cc(F)ccc2Cl)C1=Cc1ccc([N+](=O)[O-])s1 [I-133] |  |

| log P ([2]; pH 2.7) | SMILES | further results |
| --- | --- | --- |
| 3.70 | COc1ccc(C2=NOC(=O)C2=Cc2ccc(Cl)s2)cc1 [I-43] | activity (caterpillars killed) [1]: 80% |
| 3.73 | O=C1ON=C(c2c(F)cccc2F)C1=Cc1ccc(Br)s1 [I-72] |  |
| 4.63 | Cc1c(C=C2C(=O)ON=C2c2ccc(Cl)cc2)sc2ccccc12 [I-144] |  |
| 3.25 | Cc1ccc(C=C2C(=O)ON=C2c2c(F)cccc2F)s1 [I-78] |  |
|  | COc1cccc(C2=NOC(=O)C2)c1 [3-(3-methoxyphenyl)isoxazol-5(4H)-one] | chromatographic logP ([2]; HPLC): 4.03 |
| 3.29 | Cc1ccc(C=C2C(=O)ON=C2c2ccc([N+](=O)[O-])cc2)s1 [U-24] |  |
| 2.97 | COc1ccc(C2=NOC(=O)C2=Cc2ccc(C)s2)c(OC)c1 [U-25] |  |
| 3.69 | O=C1ON=C(c2ccccc2)C1=Cc1sccc1Br [I-109] |  |
| 3.13 | O=C1ON=C(c2cccc(F)c2)C1=Cc1cccs1 [I-100] |  |
| 3.17 | Cc1ccsc1C=C1C(=O)ON=C1c1c(F)cccc1F [I-73] |  |
| 2.81 | COc1ccc(C2=NOC(=O)C2=Cc2sccc2C)c(OC)c1 [U-27] |  |
| 3.95 | O=C1ON=C(c2cc(F)ccc2Cl)C1=Cc1sccc1Cl [I-136] |  |
| 4.37 | O=C1ON=C(c2ccc(C(F)(F)F)cc2)C1=Cc1ccc(Cl)s1 [I-71] |  |
| 3.70 | Cc1ccsc1C=C1C(=O)ON=C1c1ccc(Cl)cc1 [I-26] |  |
| 3.32 | O=C1ON=C(c2ccc(F)cc2)C1=Cc1ccc([N+](=O)[O-])s1 [I-54] |  |
|  | Cc1ccc(/C=C2\C(=O)ON=C2c2ccc(C(C)(C)C)cc2)s1 [I-27, 3-(4-tert-butylphenyl)-4-(2-(5-methylthienyl)methylene)isoxazol-5(4H)-one] | chromatographic logP ([2]; HPLC): 4.7 |
| 4.73 | Cc1sc(C=C2C(=O)ON=C2c2ccccc2Cl)cc1Br [I-12] |  |
| 3.17 | COc1ccc(C2=NOC(=O)C2=Cc2sccc2C)cc1OC [U-26] |  |
|  | Cc1ccc(C=C2C(=O)ON=C2c2ccccc2Cl)s1 [I-8] | log P ([2]; HPLC, acidic range pH 2.7, 0.1% aqueous formic acid and acetonitrile): 3.23 |
| 4.02 | Cc1ccsc1C=C1C(=O)ON=C1c1cc(Br)ccc1Br [I-125] |  |
| 2.90 | COc1cccc(C2=NOC(=O)C2=Cc2cccs2)c1 [U-6] |  |
| 3.70 | CCOc1ccc(C2=NOC(=O)C2=Cc2ccc(C)s2)cc1 [I-81] |  |
| 3.94 | O=C1ON=C(c2ccccc2Cl)C1=Cc1ccc(Br)s1 [I-103] |  |
| 4.21 | O=C1ON=C(c2ccc(Cl)cc2)C1=Cc1ccc(Br)s1 [I-50] |  |
| 3.70 | O=C1ON=C(c2ccc(Cl)cc2)C1=Cc1ccc([N+](=O)[O-])s1 [I-51] |  |
| 3.76 | O=C1ON=C(c2ccc(F)cc2)C1=Cc1cc(Br)cs1 [I-30] | activity (caterpillars killed) [1]: 80% |

| SMILES | log P ([2]; pH 2.7) | further results |
| --- | --- | --- |
| O=C1ON=C(c2ccccc2Cl)C1=Cc1cccs1 [I-6] | 3.17 |  |
| Cc1ccc(C)c(C2=NOC(=O)C2=Cc2cccs2)c1 [I-98] | 3.62 |  |
| O=C1ON=C(c2ccccc2F)C1=Cc1cccs1 [I-22] | 2.95 |  |
